According to PubChem BioAssay AID652070 (Broad Institute, 2013):
Inconclusive results are not listed.

Test system: HT29 HRAS cells, caspase 3/7 luminescence, apoptosis
Assay: apoptosis induction over several timepoints – cell-based, HT29 HRAS, caspase 3/7 luminescence, multiple timepoints, dry powder, mechanism study for HRAS target identification (AID 652070)
Conditions: measured here: second timepoint caspase 3/7

O=C(NCCOCCOCCOc1ccc(N(C(=O)CCl)C(C(=O)NCCc2ccccc2)c2cccs2)cc1Cl)c1ccc(COC2C#CCCCCC2)cc1 (stereo unspecified)
AC40: > 35 µM
